PubChem BioAssay (NCI)
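48-hour exposure; five concentrations; linearly interpolated endpoints. The concentration for full growth arrest is given as TGI.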

Tests used:
Test in all cases: DTP human tumour cell line panel, 48 h
ACHN renal = system: ACHN renal
CAKI-1 renal = system: CAKI-1 renal
HCT-15 colon = system: HCT-15 colon
HOP-62 NSCLC = system: HOP-62 NSCLC
M14 melanoma = system: M14 melanoma
MDA-N = system: MDA-N
NCI-H23 lung = system: NCI-H23 lung
OVCAR-4 ovarian = system: OVCAR-4 ovarian
RXF 393 renal = system: RXF 393 renal
SF-539 CNS = system: SF-539 CNS
SK-MEL-2 melanoma = system: SK-MEL-2 melanoma

| Structure (SMILES) | TGI (ACHN renal) [µM] | TGI (CAKI-1 renal) [µM] | TGI (HCT-15 colon) [µM] | TGI (HOP-62 NSCLC) [µM] | TGI (M14 melanoma) [µM] | TGI (MDA-N) [µM] | TGI (NCI-H23 lung) [µM] | TGI (OVCAR-4 ovarian) [µM] | TGI (RXF 393 renal) [µM] | TGI (SF-539 CNS) [µM] | TGI (SK-MEL-2 melanoma) [µM] |
| --- | --- | --- | --- | --- | --- | --- | --- | --- | --- | --- | --- |
| C=CCC1(O)c2cccc(O)c2C(=O)c2cccc(O)c21 (stereo not given) | 69.2 | 68.2 | 51.8 | 49.7 | 32 | 31.1 | 31.7 | > 100 | 37 | > 100 | 31.1 |
| CSc1nc(-c2cc3c(c(SC)n2)CCC3)cc2c1CCC2 | > 100 | > 100 | > 100 | > 100 | > 100 | > 100 | > 100 | > 100 | > 100 | > 100 | > 100 |
| O=[N+]([O-])/C(C(Cl)=C(Cl)Cl)=C(/Sc1ccccc1)N1CCOCC1 | 15 | 13 | 10.9 | 33.5 | 9.24 | 14.6 | 29.8 | 28.4 | 3.7 | 25.5 | 18.1 |
| COc1ccccc1/C=C1/Sc2scc(CC(=O)Nc3ccccc3)[n+]2C1=O | > 100 | > 100 | > 100 | > 100 | > 100 | 69.9 | > 100 | > 100 | 80.8 | > 100 | 73.3 |
| O=C(/C(Cl)=C/c1ccccc1)c1ccccc1 | 4.81 | 3.97 | 8.35 | 41.5 | 4.98 | 4.52 | 26 | 16.9 | 8.16 | 13.1 | 28.6 |
| Cc1cc2nc3c(C(O)CO)nn(-c4ccccc4)c3nc2cc1C (stereo not given) | 32.1 | 33.2 | 42.6 | 44 | > 100 | 40.6 | 54.7 | 53.4 | 43.6 | 50.2 | 56.2 |
| CC(C)(N=NC(C)(C)C1=NCCN1)C1=NCCN1 | > 100 | > 100 | > 100 | > 100 | > 100 | > 100 | > 100 | > 100 | > 100 | > 100 | > 100 |
| Cc1ccc(NNc2cc(=O)[nH]c(=O)[nH]2)cc1Cl | 21.4 | 28.4 | 22.7 | > 100 | 26.9 | 28.6 | 31.1 | 28.5 | 30.4 | 69.4 | 30.9 |
| C/C=C/OC1C(C2COC(C)(C)O2)OC2OC(C)(C)OC21 (stereo not given) | > 100 | > 100 | > 100 | > 100 | > 100 | > 100 | > 100 | > 100 | > 100 | > 100 | > 100 |
| COC(=O)CC1(O)C(C=C(C)C)C(C(=O)OC)C(=O)C(C(=O)OC)C1C(=O)OC (stereo not given) | > 100 | > 100 | > 100 | > 100 | > 100 | > 100 | > 100 | > 100 | > 100 | > 100 | > 100 |
